Data as given in publication PMC7617869, “Molecular glues that inhibit deubiquitylase activity and inflammatory signaling” (Nature Structural & Molecular Biology, 2025).
Where “and” joins values, the source holds several entries; their conditions need not be identical. Equal values may be shown once. Read-outs that look alike come from different tables or passages of the source.

What was measured:
[1] = test system: ISG expression in MCF10A Cas9 cells expressing BRCC45 R137A; assay: MCF10A BRCC45 R137A ISG expression (RT–qPCR); type: cell-based, human; set-up: scale not given here; details: BRCC45 KO+ BRCC45 R137A; replicate values
Description: Supplementary Protocols 1. Experimental procedures for cell biology experiments. […]
Media supplements including human insulin solution (Santa Cruz Biotechnology, #sc-360248), cholera toxin from vibrio (Sigma Aldrich, #C8052-2MG), recombinant human EGF (PeproTech, #AF-100-15-100µg), hydrocortisone (Sigma-Aldrich, #H-0888) were used to grow MCF10A cells. The 4–12% Bis-Tris SDS-PAGE gels, cell culture media, horse serum and other materials for tissue culture were purchased from Invitrogen. LipoD293 (SigmaGen, #SL100668) was used for all the transfections to generate knock out cell lines.
Immortalised breast epithelial cell line MCF10A were cultured in 10 cm plates with Dulbecco’s Modified Eagle Medium (DMEM) + F-12 (1:1) supplemented with 5% horse serum, 100 ng/mL cholera toxin, 10 […]
Real-time quantitative PCR
1x10^5 MCF10A cells were cultured as described above and seeded into 6 well plates. Cells were left to reach ultra-confluence. Once confluent, cells were washed with PBS and starved for 30 minutes in 2 mL DMEM + F-12 (1:1) supplemented with 1% horse serum. After 30 minutes cells were pre-treated with either DMSO (0.1%) (Control and IFN only) or BRISC inhibitor (2.5 µM) for 15 minutes. After 15 minutes, hIFN2α (75 ng/mL) was added to the media and mixed. Cells were treated for 4 hours. Cells were washed with ice cold PBS and scraped with cell scrapers into 350 µL RNAlater buffer and RNA […]
#79254). Isolated RNA was quantified using a Nanodrop spectrophotometer. RNA was converted into cDNA and the complementary DNA was used for real-time quantitative PCR analysis of expression of interferon stimulated genes (ISG15, IFIT1, IFIT2, IFITM1, CXCL10 and RNA18S) using an Applied Biosystems Quantstudio 6 RT-PCR system. All experiments were carried out in triplicate.

[2] = target: T1, BRISC (Homo sapiens, UniProt P46736+Q15018+Q9NXR7); assay: BRISC DUB activity assay (IQF K63-linked diubiquitin); type: biochemical
T1 construct: made in house; host or cells: Spodoptera frugiperda (Sf9) insect cells, MultiBac
Method in brief: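 Cleavage of 50 nM IQF K63-linked diubiquitin was followed by fluorescence (ex 544 nm, em 575 nm) every minute for 30 min at 30 °C in 50 mM HEPES–NaOH pH 7.0, 100 mM NaCl, 0.1 mg ml^−1 BSA, 1 mM DTT, 0.03% Brij-35. BRISC WT and mutants were at 1 nM final. IC50 values came from variable-slope fits of initial velocity.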

IC50 ([2]; 32-point dose-response, biphasic fit, read-out: IC50(1), biphasic curve): 1100 nM
IC50 ([2]; 32-point dose-response, biphasic fit, read-out: IC50(2), biphasic curve): 168 nM
Normalised V0 ([2]; Fig. 1e, BRISC, JMS-175-2 1.9996 μM): 0.6565 and 0.4518
Normalised V0 ([2]; Fig. 1e, BRISC, JMS-175-2 5.19739 μM): 0.283 and 0.275 and 0.3465
Normalised V0 ([2]; Fig. 1d, log[compound (μM)] 0.0000, listed as H20): 0.6438 and 0.8274 and 0.7444
Normalised V0 ([2]; Fig. 1d, log[compound (μM)] 0.3979, listed as H20): 0.5783 and 0.5268 and 0.4841
Normalised V0 ([2]; Fig. 1d, log[compound (μM)] 0.6990, listed as H20): 0.3795 and 0.3824 and 0.3190
Normalised V0 ([2]; Fig. 1d, log[compound (μM)] 1.0000, listed as H20): 0.2528 and 0.2942 and 0.2669
Normalised V0 ([2]; Fig. 1d, log[compound (μM)] 1.4771, listed as H20): 0.1351 and 0.1861 and 0.1726
Normalised V0 ([2]; Fig. 1d, log[compound (μM)] 1.6990, listed as H20): 0.1117 and 0.1567 and 0.1200
Normalised V0 ([2]; Fig. 1d, log[compound (μM)] -0.3010, listed as H20): 0.9255 and 0.9030
Normalised V0 ([2]; Fig. 1d, log[compound (μM)] -1.0000, listed as H20): 0.9975 and 1.0280 and 1.0210
Normalised V0 ([2]; Fig. 1d, log[compound (μM)] -2.0000, listed as H20): 1.0150 and 0.9155 and 1.0690
IC50 ([2]; IQF K63-linked diubiquitin substrate, read-out: IC50, inhibition of BRISC DUB activity): 3800 nM
Normalised V0 ([2]; [Inhibitor] 0.02 μM, replicate columns): 0.8771 and 0.8197 and 1.004
Normalised V0 ([2]; [Inhibitor] 0.0399999 μM, replicate columns): 1.299 and 0.7892 and 1.03
Normalised V0 ([2]; [Inhibitor] 0.0599997 μM, replicate columns): 0.839 and 0.6819 and 0.9433
Normalised V0 ([2]; [Inhibitor] 0.0799994 μM, replicate columns): 0.9097 and 0.9012 and 0.9628
Normalised V0 ([2]; [Inhibitor] 0.119998 μM, replicate columns): 1.013 and 0.9179 and 1.054
Normalised V0 ([2]; [Inhibitor] 0.199996 μM, replicate columns): 1.253 and 0.7708 and 1.101
Normalised V0 ([2]; [Inhibitor] 0.499975 μM, replicate columns): 0.5936 and 0.7022 and 0.9756
Normalised V0 ([2]; [Inhibitor] 0.799936 μM, replicate columns): 0.9296 and 0.6017 and 0.8518
Normalised V0 ([2]; [Inhibitor] 1.25984 μM, replicate columns): 1.139 and 0.471 and 0.8066
Normalised V0 ([2]; [Inhibitor] 1.9996 μM, replicate columns): 0.6565 and 0.4518 and 0.6268
Normalised V0 ([2]; [Inhibitor] 3.159 μM, replicate columns): 0.6624 and 0.3061 and 0.5597
Normalised V0 ([2]; [Inhibitor] 5.19739 μM, replicate columns): 0.283 and 0.275 and 0.3465
Normalised V0 ([2]; [Inhibitor] 7.99364 μM, replicate columns): 0.6473 and 0.2184 and 0.4215
Normalised V0 ([2]; [Inhibitor] 12.7839 μM, replicate columns): 0.4135 and 0.1798 and 0.2477
Normalised V0 ([2]; [Inhibitor] 19.96 μM, replicate columns): 0.3284 and 0.5166 and 0.3249
Normalised V0 ([2]; [Inhibitor] 31.4999 μM, replicate columns): 0.6187 and 0.1303 and 0.1533
Normalised V0 ([2]; [Inhibitor] 50.147 μM, replicate columns): 0.2621 and 0.1377 and 0.1733
Normalised V0 ([2]; [Inhibitor] 79.7601 μM, replicate columns): 0.2164 and 0.1356 and 0.1726
Normalised V0 ([2]; [Inhibitor] 125.99 μM, replicate columns): 0.1111 and 0.1816 and 0.02719
Normalised V0 ([2]; [Inhibitor] 199.922 μM, replicate columns): -0.03072 and 0.01018 and -0.03521
Normalised velocity (V0) ([2]; inhibitor 0.000794328 μM): 1
Normalised velocity (V0) ([2]; inhibitor 0.00125892 μM): 0.9579 and 1.034
Normalised velocity (V0) ([2]; inhibitor 0.00199526 μM): 1.01 and 0.9969
Normalised velocity (V0) ([2]; inhibitor 0.00316228 μM): 0.9962 and 1.154
Normalised velocity (V0) ([2]; inhibitor 0.00501187 μM): 0.9932 and 1.028
Normalised velocity (V0) ([2]; inhibitor 0.00794328 μM): 1.087 and 1.121
normalised V0, Mean ([2]; inhibitor 0.01 μM): 1
Normalised velocity (V0) ([2]; inhibitor 0.0125893 μM): 1.059 and 1.016
Normalised velocity (V0) ([2]; inhibitor 0.0199526 μM): 1.08 and 1.097
Normalised velocity (V0) ([2]; inhibitor 0.0316228 μM): 1.03 and 1.101
Normalised velocity (V0) ([2]; inhibitor 0.0501187 μM): 1.036 and 1.109
normalised V0, Mean ([2]; inhibitor 0.0781 μM): 0.9992
Normalised velocity (V0) ([2]; inhibitor 0.0794328 μM): 1.026 and 1.083
Normalised velocity (V0) ([2]; inhibitor 0.125893 μM): 0.8526 and 0.9544
Normalised velocity (V0) ([2]; inhibitor 0.199526 μM): 0.6481 and 0.8082
Normalised velocity (V0) ([2]; inhibitor 0.316228 μM): 0.694 and 0.5793
Normalised velocity (V0) ([2]; inhibitor 0.398107 μM): 0.5098 and 0.5762
Normalised velocity (V0) ([2]; inhibitor 0.630957 μM): 0.4827 and 0.4555
normalised V0, Mean ([2]; inhibitor 0.7812 μM): 0.7414
Normalised velocity (V0) ([2]; inhibitor 1 μM): 0.3835 and 0.2691
normalised V0, Mean ([2]; inhibitor 1.562 μM): 0.5385
Normalised velocity (V0) ([2]; inhibitor 1.58489 μM): 0.2248 and 0.2189
Normalised velocity (V0) ([2]; inhibitor 2.51189 μM): 0.2301 and 0.1988
normalised V0, Mean ([2]; inhibitor 3.12 μM): 0.384
Normalised velocity (V0) ([2]; inhibitor 3.98107 μM): 0.1293 and 0.1933
normalised V0, Mean ([2]; inhibitor 6.25 μM): 0.2986
Normalised velocity (V0) ([2]; inhibitor 6.30957 μM): 0.09323 and 0.07115
normalised V0, Mean ([2]; inhibitor 12.3 μM): 0.2014
Normalised velocity (V0) ([2]; inhibitor 15.8489 μM): 0.009774 and 0.01547
normalised V0, Mean ([2]; inhibitor 24.54 μM): 0.1684
Normalised velocity (V0) ([2]; inhibitor 25.1189 μM): 0
Normalised velocity (V0) ([2]; inhibitor 39.8107 μM): 0
normalised V0, Mean ([2]; inhibitor 48.9 μM): 0.1492
Normalised velocity (V0) ([2]; inhibitor 63.0957 μM): 0
Normalised velocity (V0) ([2]; inhibitor 100 μM): 0
normalised V0, Mean ([2]; inhibitor 100 μM): 0.04999
normalised V0, Mean ([2]; inhibitor 199.5 μM): 0.004784
Structure (SMILES): O=C(NC1CCNCC1)c1nn(C(=O)c2c(Cl)cccc2Cl)cc1NC(=O)c1c(Cl)cccc1Cl [JMS-175-2]
ISG expression (Fig. 5b) [1]: 1.361 and 1.11 and 1.149 and 1.082 and 0.8783
ISG expression (Fig. 5c) [1]: 1.325 and 1.127 and 1.329 and 1.145 and 0.8628
ISG expression (Fig. 5e) [1]: 1.156 and 1.163 and 1.393 and 1.185 and 1.136
ISG expression (Fig. 5f) [1]: 1.041 and 1.139 and 1.224 and 1.412 and 1.207
ISG expression (Fig. 5d) [1]: 1.23 and 1.313 and 1.719 and 1.523 and 0.8668
Normalised V0 ([2]; [Inhibitor] 0.013 μM, replicate columns): 0.9583 and 0.7384 and 1.046 and 0.967 and 0.8595 and 0.8402
